The record followed here is patent publication US7767238B2, “Beverage composition and method of preventing degradation of vitamins in beverages” (PepsiCo, Inc., priority 2005, dated 2010).

Series [1] can be described thus: Vitamin A Palmitate remaining in non-carbonated pink lemonade 5% juice, PET bottle, store fluorescent light (Example 3). The series is classed as physicochemical. The settings on record: 66 ppm stabilizer, start 3500 IU, one week fluorescent light, Light control 737, Dark control 3215. The protocol: (§1) A clear lemon-lime (L/L) carbonated soft drink (CSD) with Vitamin C and ethylene-diaminetetraacetic acid (EDTA) was prepared. Seven samples of the carbonated soft drink were prepared each containing 2500 IU of Vitamin A Palmitate which can be obtained from Roche and the amount of rutin, SanMelin or blueberry leaves extract indicated in Table 8. All samples were packaged in clear glass containers. The Dark and Light samples were each free of rutin, SanMelin or blueberry leaves extract. The Dark sample was shielded from light. All the other samples, including the Light sample were exposed to typical store fluorescent light. The values in the table were all measured at one week.
A non-carbonated pink lemonade beverage composed of 5% juice was prepared. Seven samples like the ones in Examples 1 and 2 were prepared except that the starting amount of Vitamin A Palmitate was 3500 IU and the samples were packaged in PET containers.

A short description of series [2]: Vitamin A Palmitate remaining in clear lemon-lime CSD with Vitamin C and EDTA, clear glass, store fluorescent light (Example 2). The series is classed as physicochemical. The settings on record: 100 ppm stabilizer, start 2000 IU, one week fluorescent light, Light control 548, Dark control 1870. On the procedure: as §1
Example 2 differed from Example 1 in that the starting amount of Vitamin A Palmitate was 2000 IU.

Series [3] can be described thus: Vitamin A Palmitate remaining in clear lemon-lime CSD with Vitamin C and EDTA, clear glass, store fluorescent light (Example 1). In kind it is physicochemical. The settings on record: start 2500 IU, one week fluorescent light, Light control 576, Dark control 2300. On the procedure:
as §1

A short description of series [4]: Vitamin stabilization ability, observed rank order. The settings on record: more hydroxyl groups on the aryl rings enhance vitamin stabilization.
Series [5] can be described thus: Vitamin A remaining in fruit juice in 20 oz. PET bottle under store fluorescent light. In kind it is physicochemical. The settings on record: freshly prepared 3500 IU fruit juice, typical store fluorescent light, one week, no stabilizer.

Regarding `C[C@@H]1O[C@@H](OC[C@H]2O[C@@H](Oc3c(-c4ccc(O)c(O)c4)oc4cc(O)cc(O)c4c3=O)[C@H](O)[C@@H](O)[C@@H]2O)[C@H](O)[C@H](O)[C@H]1O` [Rutin, rutin], the “IU of Vitamin A Palmitate” value in series [1] stood at 1824 IU; in series [2] it was 856 IU; in series [3] (33 ppm stabilizer) it was 878 IU; in series [3] (66 ppm stabilizer), 1215 IU.
Consider `O=C(O)/C=C/c1ccc(O)c(O)c1` [caffeic acid], for which, in series [4], the “vitamin stabilization ability (rank order)” value (shortened to “vitamin stabilization ability”) was “caffeic acid (2 hydroxyl groups)>ferulic acid>coumaric acid>cinnamic acid”.
Regarding `O=C(O)C=Cc1ccccc1` [cinnamic acid], the “vitamin stabilization ability” value in series [4] is “caffeic acid (2 hydroxyl groups)>ferulic acid>coumaric acid>cinnamic acid”.
For the molecule `O=C(O)/C=C/c1ccc(O)cc1` [coumaric acid], in series [4], the “vitamin stabilization ability” value was “caffeic acid (2 hydroxyl groups)>ferulic acid>coumaric acid>cinnamic acid”.
Consider `COc1cc(/C=C/C(=O)O)ccc1O` [ferulic acid], for which the “vitamin stabilization ability” value in series [4] was “caffeic acid (2 hydroxyl groups)>ferulic acid>coumaric acid>cinnamic acid”.
As to Vitamin A, the “remaining Vitamin A content” value in series [5] is given as “approximately 1000 IU”.
